From PubChem BioAssay (NCI)
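All cell lines were grown in 96-well plates and treated with compound for 48 hours. GI50: concentration for 50% inhibition of growth. TGI denotes the concentration required for complete inhibition of growth.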

How the values were obtained:
Assay in all cases: DTP human tumour cell line panel, 48 h
A549 NSCLC = system: A549 NSCLC
CCRF-CEM leukemia = system: CCRF-CEM leukemia
HOP-62 NSCLC = system: HOP-62 NSCLC
HT29 colon = system: HT29 colon
K-562 leukemia = system: K-562 leukemia
SK-MEL-2 melanoma = system: SK-MEL-2 melanoma
SK-MEL-5 melanoma = system: SK-MEL-5 melanoma
SN12C renal = system: SN12C renal
SNB-19 CNS = system: SNB-19 CNS
U251 CNS = system: U251 CNS

| Structure (SMILES) | GI50 (A549 NSCLC) | TGI (A549 NSCLC) | GI50 (CCRF-CEM leukemia) | TGI (CCRF-CEM leukemia) | GI50 (HOP-62 NSCLC) | TGI (HOP-62 NSCLC) | GI50 (HT29 colon) | TGI (HT29 colon) | GI50 (K-562 leukemia) | TGI (K-562 leukemia) | GI50 (SK-MEL-2 melanoma) | TGI (SK-MEL-2 melanoma) | GI50 (SK-MEL-5 melanoma) | TGI (SK-MEL-5 melanoma) | GI50 (SN12C renal) | TGI (SN12C renal) | GI50 (SNB-19 CNS) | TGI (SNB-19 CNS) | GI50 (U251 CNS) | TGI (U251 CNS) |
| --- | --- | --- | --- | --- | --- | --- | --- | --- | --- | --- | --- | --- | --- | --- | --- | --- | --- | --- | --- | --- |
| C(=N\Nc1nnn(Cc2ccccc2)n1)/c1ccccc1 | 4.7 µM | > 100 µM | 1.71 µM | > 47.5 µM | 4.77 µM | > 52.4 µM | 1.26 µM | > 100 µM | 0.43 µM | > 100 µM | 1.02 µM | 6.28 µM | 2.02 µM | > 40.7 µM | 9.46 µM | > 100 µM | 9.95 µM | 64.8 µM | 3.47 µM | 24.9 µM |
| COC(=O)C1(C(=O)OC)CC(=O)c2cc3c(cc2-c2c(cc(OC)c(OC)c2OC)C1)OCO3 | – | > 211 µM | – | > 211 µM | – | > 211 µM | – | > 211 µM | – | > 211 µM | – | > 211 µM | – | > 211 µM | – | > 211 µM | – | > 211 µM | – | > 211 µM |
| CN(C)C(=O)O[C@H]1CN[C@H](C#Cc2cc3ncnc(Nc4ccc(OCc5cccc(F)c5)c(Cl)c4)c3s2)C1 | 6.12 µM | > 25 µM | 3.17 µM | > 25 µM | > 23.4 µM | > 25 µM | > 23 µM | > 25 µM | > 17.1 µM | > 25 µM | > 25 µM | > 25 µM | 16 µM | > 25 µM | 5.64 µM | > 25 µM | > 19.7 µM | > 25 µM | 14.7 µM | > 25 µM |
| Cc1c(C(=O)O)oc2ccc([N+](=O)[O-])cc12 | – | > 100 µM | – | > 100 µM | – | > 100 µM | – | > 100 µM | – | > 100 µM | – | > 100 µM | – | > 100 µM | – | > 100 µM | – | > 100 µM | – | > 100 µM |
| CSC1=Nc2ccccc2N=C(c2ccc(Cl)cc2)C1 | – | > 100 µM | – | > 100 µM | – | > 100 µM | – | 90 µM | – | > 100 µM | – | 51.4 µM | – | 51.3 µM | – | > 100 µM | – | > 100 µM | – | > 100 µM |
| CCOC(=O)/C(C#N)=C\C=C(/Cl)c1ccc(Cl)cc1 | 30.4 µM | 90.4 µM | 0.484 µM | > 100 µM | 17.5 µM | 35.2 µM | 24 µM | > 100 µM | 12.9 µM | > 64.3 µM | 27.7 µM | > 91.6 µM | 18.4 µM | 39 µM | 21 µM | 54.7 µM | 19.1 µM | 46.4 µM | 17.6 µM | 32.1 µM |
| CC(=O)N1CCC2(c3ccccc3N(C(C)=O)C2c2ccc(O)cc2)C1C(=O)O (stereo unspecified) | – | > 100 µM | – | > 100 µM | – | > 100 µM | – | > 100 µM | – | > 100 µM | – | > 100 µM | – | > 100 µM | – | > 100 µM | – | > 100 µM | – | > 100 µM |
| CCOC(=O)C(NC(=O)c1nc[nH]c1[N+](=O)[O-])C(C)C (stereo unspecified) | – | > 100 µM | – | > 100 µM | – | > 100 µM | – | > 100 µM | – | > 100 µM | – | > 100 µM | – | > 100 µM | – | > 100 µM | – | > 100 µM | – | > 100 µM |
| O=C1OCC2=C1C(c1ccccc1)c1cc3c(cc1N2CCO)OCO3 (stereo unspecified) | 14.7 µM | > 50 µM | 4.54 µM | > 50 µM | 4.08 µM | > 50 µM | 1.72 µM | > 50 µM | 1.91 µM | > 50 µM | 2.72 µM | > 50 µM | 2.78 µM | > 50 µM | 20.2 µM | > 50 µM | 15.6 µM | > 50 µM | 3.01 µM | > 50 µM |
| CC(C)CCC1(CCN)C(=O)NC(=O)NC1=O | – | > 100 µM | – | 48.3 µM | – | > 100 µM | – | > 100 µM | – | > 100 µM | – | > 100 µM | – | > 100 µM | – | > 100 µM | – | > 100 µM | – | > 100 µM |
| c1c[nH]c(CN2CCOCC2)n1 | – | > 100 µM | – | > 100 µM | – | > 100 µM | – | > 100 µM | – | > 100 µM | – | > 100 µM | – | > 100 µM | – | > 100 µM | – | > 100 µM | – | > 100 µM |
| CCCCN(CC)CC(C(C)=O)c1c(O)c2ccccc2oc1=O (stereo unspecified) | – | > 100 µM | – | > 100 µM | – | > 100 µM | – | > 100 µM | – | > 100 µM | – | > 100 µM | – | > 100 µM | – | > 100 µM | – | > 100 µM | – | > 100 µM |
| CN1/C(=C\C=C\C2=[N+](C)c3ccccc3C2(C)C)C(C)(C)c2ccccc21 | 0.0413 µM | 13.5 µM | 0.176 µM | 12.6 µM | 0.258 µM | 7.37 µM | 0.0444 µM | 1.49 µM | < 0.0156 µM | 1.39 µM | 0.212 µM | 1.14 µM | 0.0322 µM | 0.151 µM | 0.155 µM | 1.11 µM | 0.067 µM | 12 µM | 0.0369 µM | 5.21 µM |
| O=[N+]([O-])c1ccc(-c2ccc(-c3csc(Nc4ccccc4)n3)o2)cc1 | – | > 100 µM | – | 16.9 µM | – | > 100 µM | – | 49.7 µM | – | 32.1 µM | – | 36.4 µM | – | 40.1 µM | – | 33 µM | – | > 65.8 µM | – | 41.5 µM |
| Cc1ccc(-c2nc3nc(-c4ccc(F)cc4)nc(N4CCCNCC4)c3o2)cc1 | – | – | 0.293 µM | 1.04 µM | 1.74 µM | 3.51 µM | – | – | 0.225 µM | 0.539 µM | 1.73 µM | 3.35 µM | 1.75 µM | 3.16 µM | 1.67 µM | 3.13 µM | 1.7 µM | 3.22 µM | 1.33 µM | 2.83 µM |
| Cc1cc(I)cc(CN(C)CCCN2CCCC2)c1O | 29.9 µM | > 100 µM | 3.46 µM | 38.1 µM | 16.4 µM | 34.8 µM | 9.52 µM | 24.4 µM | 14.5 µM | 33.2 µM | 20.6 µM | 40.4 µM | 13.1 µM | 26 µM | 46.1 µM | > 100 µM | 27.6 µM | > 80.4 µM | 19.4 µM | 49.5 µM |
